Reference: patent US10143681B2, “Factor XIa inhibitors” (MERCK SHARP & DOHME CORP., priority 2016, dated 2018)
pIC50: −log10 of the molar value.

Legend:
[1] = tested on: Human plasma (intrinsic coagulation cascade); test: Activated Partial Thromboplastin Time (aPTT) Assay; details: concentration that causes a 50% (1.5×) increase of clot time over vehicle
Procedure, shortened: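 Inhibitors spiked into pooled citrated normal-donor human plasma (aPTT 28-40 seconds), run on automated coagulation analyzer: ellagic acid activation of Factor XII, then clot time after recalcification. Reported as concentration giving 50% (1.5×) prolongation over vehicle clot time.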

[2] = Rat Pharmacokinetic Screening IV/PO; format: in vivo; details: male; for clearance: plasma clearance, IV administration; for MRT / bioavailability: plasma; for MRT: mean residence time; for bioavailability: oral bioavailability, oral vs. IV dosing
Procedure: Plasma pharmacokinetic parameters for clearance (Cl), volume of distribution, mean residence time (MRT) and oral bioavailability (% F) were determined in rats from oral administration and IV administration studies. 4 male rats, typically weighing 225-260 gram, were fasted overnight prior to dosing. Compounds were prepared for oral and IV dosing by addition to a vehicle, depending on the dose used. For a typical preparation, 1 mg per mL (IV) or 1.5 mg per mL (oral) of test compound was added to vehicle comprised of 20% dimethyl sulfoxide (DMSO), 60% polyethylene glycol 400 (PEG400) and 20% water. IV formulation was administered to 2 rats via pre-cannulated jugular vein, and oral dosing was administered to 2 rats via oral gavage. Blood was collected by pre-cannulated artery, typically at predose, 2, 8, 15, 30 min, 1, 2, 4, 6, and 8 hr postdose for IV, and at predose, 15, 30 min, 1, 2, 4, 6, 8 hr for oral dosing. Samples were collected in K2EDTA tubes, stored on ice, and centrifuged. Plasma was transferred to a micro titer plate and stored at −70° C. until analysis. Plasma samples were extracted using protein precipitation and analyzed by liquid chromatography separation followed by mass spec detection (LC-MS/MS), using a standard curve for each compound. Plasma pharmacokinetic parameters were calculated for IV and oral dosing data by non-compartmental methods. Oral bioavailability was determined as the ratio of the dose-normalized plasma area under the curve (AUC) following oral dosing vs. IV dosing.

Human plasma kallikrein = Human plasma kallikrein (Homo sapiens (Human), UniProt P03952); test: Kallikrein Assay; format: biochemical; details: purified Human plasma kallikrein 0.5 nM, substrate Acetyl-K-P-R-AFC; read-out: P. KLK IC50
Procedure, shortened: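 Purified human plasma kallikrein (0.5 nM final) with Acetyl-K-P-R-AFC substrate ([…]) in pH 7.4 HEPES/NaCl/CaCl2/PEG buffer, room temperature or 37 °C; fluorescence rise read at 405/510 nm under linear conditions after enzyme–inhibitor equilibration. IC50 from four-parameter logistic fit; Ki via Cheng–Prusoff.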

human Factor XIa = human Factor XIa (Homo sapiens (Human), UniProt P03951); test: Factor XIa Assay; format: biochemical; details: human Factor XIa 0.04 nM, 30 min pre-incubation at 25° C., substrate GPR-AFC; read-out: FXIa IC50
Procedure, shortened: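 IC50 values were obtained from four-parameter log(inhibitor)-response fits of % inhibition, then converted to Ki using Cheng-Prusoff. GPR-AFC hydrolysis was read at 400/505 nm after 60 min at 25 °C.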

Sequence of human Factor XIa (P03951 388-625): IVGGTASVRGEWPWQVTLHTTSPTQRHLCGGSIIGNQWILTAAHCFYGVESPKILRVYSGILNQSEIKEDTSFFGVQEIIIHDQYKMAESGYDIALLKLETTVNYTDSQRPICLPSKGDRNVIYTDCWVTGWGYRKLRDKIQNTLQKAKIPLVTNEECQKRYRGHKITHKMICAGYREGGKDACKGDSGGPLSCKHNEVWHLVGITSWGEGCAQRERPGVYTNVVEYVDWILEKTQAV
Sequence of human Factor XIa (P03951 19-387 partner): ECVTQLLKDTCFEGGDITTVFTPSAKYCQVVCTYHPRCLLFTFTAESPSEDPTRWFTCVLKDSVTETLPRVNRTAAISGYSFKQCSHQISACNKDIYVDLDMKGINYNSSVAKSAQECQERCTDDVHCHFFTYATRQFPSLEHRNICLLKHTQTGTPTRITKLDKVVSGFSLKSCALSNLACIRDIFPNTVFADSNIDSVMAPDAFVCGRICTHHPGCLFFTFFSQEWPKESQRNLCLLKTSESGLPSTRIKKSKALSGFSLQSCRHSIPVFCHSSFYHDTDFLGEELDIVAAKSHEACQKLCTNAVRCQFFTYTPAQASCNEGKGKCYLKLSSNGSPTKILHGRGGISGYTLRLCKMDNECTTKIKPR
Sequence of Human plasma kallikrein (P03952 391-638): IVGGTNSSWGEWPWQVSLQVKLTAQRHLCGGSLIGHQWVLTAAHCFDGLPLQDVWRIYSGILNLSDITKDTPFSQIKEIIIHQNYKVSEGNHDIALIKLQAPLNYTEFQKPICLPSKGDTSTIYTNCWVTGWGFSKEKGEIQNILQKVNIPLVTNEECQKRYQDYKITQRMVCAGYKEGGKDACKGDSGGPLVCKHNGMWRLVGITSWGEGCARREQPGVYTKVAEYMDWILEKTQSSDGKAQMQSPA
Sequence of Human plasma kallikrein (P03952 20-390 partner): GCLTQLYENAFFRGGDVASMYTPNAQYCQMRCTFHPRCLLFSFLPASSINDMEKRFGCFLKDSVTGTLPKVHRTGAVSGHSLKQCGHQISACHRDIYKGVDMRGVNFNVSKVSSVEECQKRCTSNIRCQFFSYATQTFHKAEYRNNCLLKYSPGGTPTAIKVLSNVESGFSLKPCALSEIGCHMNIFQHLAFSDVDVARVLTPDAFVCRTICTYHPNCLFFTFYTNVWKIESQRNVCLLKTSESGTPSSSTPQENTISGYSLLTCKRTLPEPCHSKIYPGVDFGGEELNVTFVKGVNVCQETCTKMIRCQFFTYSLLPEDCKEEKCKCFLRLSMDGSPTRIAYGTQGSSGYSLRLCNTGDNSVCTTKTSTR

clearance [2] [mL/min/kg]	MRT [2] [h]	bioavailability [2] [%]	pIC50 (Human plasma kallikrein)	pIC50 (human Factor XIa)	SMILES	aPTT (1.5x) [1] [µM]
5	2.5	56	7.10		O=C(O)c1ccc(NC(=O)[C@H](CC2CC2)c2ccc(-c3c(OC(F)F)ccc(Cl)c3F)c[n+]2[O-])cc1 (single isomer, unassigned) [Example 2]	1.16
			7.70	9.35	C[C@]1(O)CC[C@H](CC(C(=O)Nc2ccc(C(=O)O)cc2)c2ccc(-c3c(OC(F)F)ccc(Cl)c3F)c[n+]2[O-])CC1 (single isomer, unassigned) [Example 43, 2-(1-((4-carboxyphenyl)amino)-3-((1r,4r)-4-hydroxy-4-methylcyclohexyl)-1-oxopropan-2-yl)-5-(3-chloro-6-(difluoromethoxy)-2-fluorophenyl)pyridine 1-oxide]	0.55
			8.22	9.40	O=C(O)c1ccc(NC(=O)C(CC2CC2CF)c2ccc(-c3c(C(F)F)ccc(Cl)c3F)c[n+]2[O-])cc1 (single isomer, unassigned) [Example 94, 2-(1-((4-carboxyphenyl)amino)-3-(2-(fluoromethyl)cyclopropyl)-1-oxopropan-2-yl)-5-(3-chloro-6-(difluoromethyl)-2-fluorophenyl)pyridine 1-oxide]	0.4
			7.08	8.37	O=C(O)c1ccc(NC(=O)C(CC2CC2)c2ccc(-c3cc(Cl)ccc3C(F)F)c[n+]2[O-])cc1 (single isomer, unassigned) [Example 29, (R)- or (S)-2-(1-((4-carboxyphenyl)amino)-3-cyclopropyl-1-oxopropan-2-yl)-5-(5-chloro-2-(difluoromethyl)phenyl)pyridine 1-oxide]	2.07
4.3	2.6	63		9.42	C[C@H]1C[C@@H]1C[C@@H](C(=O)Nc1ccc(C(=O)O)cc1)c1ccc(-c2c(OC(F)F)ccc(Cl)c2F)c[n+]1[O-] (single isomer, unassigned) [Example 55]	0.53
			7.55	8.48	O=C(O)c1ccc(NC(=O)C(CC2CC2F)c2ccc(-c3c(C(F)F)ccc(Cl)c3F)c[n+]2[O-])cc1 (single isomer, unassigned) [Example 93, 2-(1-((4-carboxyphenyl)amino)-3-(2-fluorocyclopropyl)-1-oxopropan-2-yl)-5-(3-chloro-6-(difluoromethyl)-2-fluorophenyl)pyridine-1-oxide]	0.8
			6.01	8.16	O=C(O)c1ccc(NC(=O)[C@H](CC2CC2)c2ccc(-c3c(OCC4CC4)ccc(Cl)c3F)c[n+]2[O-])cc1 [Example 13, (R)-4-[(2-{5-[3-chloro-6-(cyclopropylmethoxy)-2-fluorophenyl]-1-oxidopyridin-2-yl}-3-cyclopropylpropanoyl)amino] benzoic acid]	11.1
			8.54	9.72	CC1CC1C[C@@H](C(=O)Nc1ccc(C(=O)O)cc1)c1ccc(-c2c(C(F)F)ccc(Cl)c2F)c[n+]1[O-] (single isomer, unassigned) [Example 63]	2.13
			8.02	9.40	O=C(O)c1ccc(NC(=O)C(CC2CC2CF)c2ccc(-c3c(C(F)F)ccc(Cl)c3F)c[n+]2[O-])cc1 (single isomer, unassigned) [Example 95, 2-(1-((4-carboxyphenyl)amino)-3-(2-(fluoromethyl)cyclopropyl)-1-oxopropan-2-yl)-5-(3-chloro-6-(difluoromethyl)-2-fluorophenyl)pyridine-1-oxide]	0.43
12.1	2.3	70	7.84		O=C(O)c1ccc(NC(=O)C(CC2CC2(F)F)c2ccc(-c3c(C(F)F)ccc(Cl)c3F)c[n+]2[O-])cc1 (single isomer, unassigned) [Example 76, 2-(1-((4-carboxyphenyl)amino)-3-(2,2-difluorocyclopropyl)-1-oxopropan-2-yl)-5-(3-chloro-6-(difluoromethyl)-2-fluorophenyl)pyridine 1-oxide]	0.72
			7.51	8.52	N#CC1(CC(C(=O)Nc2ccc(C(=O)O)cc2)c2ccc(-c3c(C(F)F)ccc(Cl)c3F)c[n+]2[O-])CC1 (racemic) [Example 31, 2-(1-((4-carboxyphenyl)amino)-3-(1-cyanocyclopropyl)-1-oxopropan-2-yl)-5-(3-chloro-6-(difluoromethyl)-2-fluorophenyl)pyridine 1-oxide]	0.88
5.1	2.5	34	8.33	9.44	O=C(O)c1ccc(NC(=O)[C@H](CC2CCC2)c2ccc(-c3c(C(F)F)ccc(Cl)c3F)c[n+]2[O-])cc1 (mixture of isomers) [Example 4, (S)- and (R)-2-(1-((4-Carboxyphenyl)amino)-3-cyclobutyl-1-oxopropan-2-yl)-5-(3-chloro-6-(difluoromethyl)-2-fluorophenyl)pyridine 1-oxide]	
			7.62	8.49	O=C(O)c1ccc(NC(=O)C(CC2CC2C(F)(F)F)c2ccc(-c3c(OC(F)F)ccc(Cl)c3F)c[n+]2[O-])cc1 (single isomer, unassigned) [Example 107, 2-(1-((4-carboxyphenyl)amino)-1-oxo-3-(2-(trifluoromethyl)cyclopropyl)propan-2-yl)-5-(3-chloro-6-(difluoromethoxy)-2-fluorophenyl)pyridine 1-oxide]	1.74
			7.72	8.89	CC1CC(CC(C(=O)Nc2ccc(C(=O)O)cc2)c2ccc(-c3c(C(F)(F)F)ccc(Cl)c3F)c[n+]2[O-])C1 (single isomer, unassigned) [Example 74, 2-(1-((4-carboxyphenyl)amino)-3-(3-methylcyclobutyl)-1-oxopropan-2-yl)-5-(3-chloro-2-fluoro-6-(trifluoromethyl)phenyl) pyridine 1-oxide]	2.77
			7.60	8.92	O=C(O)c1ccc(NC(=O)C(CC2CC2C(F)(F)F)c2ccc(-c3c(OC(F)F)ccc(Cl)c3F)c[n+]2[O-])cc1 (single isomer, unassigned) [Example 109, 2-(1-((4-carboxyphenyl)amino)-1-oxo-3-(2-(trifluoromethyl)cyclopropyl)propan-2-yl)-5-(3-chloro-6-(difluoromethoxy)-2-fluorophenyl)pyridine 1-oxide]	0.76

SMILES	clearance [2] [mL/min/kg]	MRT [2] [h]	bioavailability [2] [%]	pIC50 (Human plasma kallikrein)	pIC50 (human Factor XIa)	aPTT (1.5x) [1] [µM]
O=C(O)c1ccc(NC(=O)[C@H](CC2CC2)c2ccc(-c3c(C(F)F)ccc(Cl)c3F)c[n+]2[O-])cc1 (mixture of isomers) [Example 23, (S)- and (R)-2-(1-((4-carboxyphenyl)amino)-3-cyclopropyl-1-oxopropan-2-yl)-5-(3-chloro-6-(difluoromethyl)-2-fluorophenyl)pyridine 1-oxide]	1.9	2.9	89	7.66	9.05	
